We go through two compounds from article PMC9000499, “New Triazolyl N^N Bidentate Rh(III), Ir(III), Ru(II) and Os(II) Complexes: Synthesis and Characterization, Probing Possible Relations between Cytotoxicity with Transfer Hydrogenation Efficacy and Interaction with Model Biomolecules” (Molecules, 2022).

Common to all, as to assay type: cell-based
Assay [1] has as its system cervical cancer cells (Hela). Nature of the assay: MTS in vitro cytotoxicity assay, Hela. The note with it: Homo sapiens, HeLa, 96 h exposure, mean ± SD n = 6. The text has this:
(§1) The absorbance is directly proportional to cell viability.

The test system of assay [2] is lung cancer cells (A549). Put plainly: MTS in vitro cytotoxicity assay, A549. The note with it: Homo sapiens, A549, 96 h exposure, mean ± SD n = 6.
Source text: as §1

The test system of assay [3] is Lymphoma cells (MT4). Nature of the assay: MTS in vitro cytotoxicity assay, MT4. The note with it: 96 h exposure, mean ± SD n = 6.
Source text: as §1

Assay [4] can be described thus: MTS in vitro cytotoxicity assay, HEK293. The note with it: Homo sapiens, HEK293; MTS assay, 96 h exposure, mean ± SD n = 6.
Source text: as §1
For orientation: Formazan colour is commonly taken as a measure of viable cells.

For assay [5], the system named is kidney cancer cells (HEK293). Nature of the assay: MTS in vitro cytotoxicity assay, HEK293. The note with it: EC50 against BHK21 divided by EC50 against HEK293.
Source text: as §1

For assay [6], the system named is normal kidney cells (BHK21). Nature of the assay: MTS in vitro cytotoxicity assay, BHK21. The following applies: Mesocricetus auratus, BHK-21, 96 h exposure, mean ± SD n = 6.
Source text: as §1

A word on the EC50: it is the concentration at which the effect is half-maximal. High values mean lower potency in that assay, low ones higher potency in that assay. As for `c1ccc(Cn2cc(-c3ccccn3)nn2)cc1` [Complex L1, 2-(1-Benzyl-1H-1,2,3-triazol-4-yl)pyridine], the EC50 in assay [1] was 168 ± 31 µM; in assay [2] it was above 1300 µM; in assay [3] it was above 1300 µM; in assay [4], above 1300 µM; in assay [6] it was above 1300 µM. Also, in assay [5], the “SI (selectivity index)” value is listed as at most 1.

`c1ccc(Cn2cc(-c3ccccn3)nn2)nc1` [Complex L2, 2-((4-(Pyridin-2-yl)-1H-1,2,3-triazol-1-yl)methyl)pyridine]: the EC50 is 1070 ± 134 µM in assay [1], above 1300 µM in assay [2], above 1300 µM in assay [4] and above 1300 µM in assay [6]. Moreover, the “EC50 MT4” value in assay [3] was “N.R”. Also, the “SI (selectivity index)” value in assay [5] was at most 1.
